Test results: patent US6512003B2, “Synthetic spiroketal pyranes as potent anti-cancer agents and use” (Parker Hughes Institute, priority 1998, dated 2003)

Tests used:
[1] = test system: human BT-20 breast cancer cells; assay: Apoptosis of breast cancer cells by transmission electron microscopy; format: cell-based; conditions: BT-20 cells, FIG. 6
Method: (§1) The effects of spiroketal pyrans on the survival of human breast cancer cells were examined in vitro. Cells were incubated at 37° C. for the indicated time periods with the title compounds. At the end of the incubation, cells were washed twice with PBS and fixed in 2% paraformaldehyde and examined by microscopy.

[2] = test system: human breast cancer cells; assay: Confocal laser scanning microscopy of microtubules (alpha-tubulin immunofluorescence) and mitotic index; format: cell-based; set-up: microtubule organization and cell morphology: dose or concentration left out as unconfirmed; conditions: for microtubule organization and cell morphology: confocal microscopy, FIG. 7
Method: as §1
The effects of SPIKET-P1 on human breast cancer cells was also examined using confocal laser scanning microscopy^14. After fixing, the cells were permeabilized and non-specific binding sites were blocked with 2.5% BSA in PBS containing 0.1% Triton X-100 for 30 minutes. Tubulin expression was examined by immunofluorescence using a monoclonal antibody against α-tubulin (Sigma Chemical Co, St. Louis, Mo.) at a dilution of 1:1000 and an lanti-mouse IgG conjugated to FITC. Cells were washed in PBS and counterstained with toto-3 (Molecular Probes Inc., Eugene, Oreg.) for 10 minutes at a dilution of 1:1000. Cells were washed again with PBS and the coverslips were mounted with Vectashield (Vector Labs, Burlingame, Calif.) and viewed with a confocal microscope (Bio-Rad MRC 1024) mounted in a Nikon Labhophot upright microscope.
Digital images were saved on a Jaz disk and processed with Adobe Photoshop software (Adobe Systems, Mountain View, Calif.).
Vehicle-treated control cells are adherent with a well organized microtubule cytoskeleton, seen in the control (FIG. 7A) in green. […] Additionally, membrane blebbing and nuclear fragmentation was observed. Large vacuoles were present within treated cells. SPIKET-P-1 also affected the mitotic index, 2.25% of control cells were in mitosis whereas 0.0% of treated cells were in mitosis (23/1024 vs 0/1000, respectively).

tubulin = conditions: cited from earlier work

| Molecule | induction of apoptosis [1] | microtubule organization and cell morphology [2] | microtubule organization and cell morphology ([2]; listed as SPA-1) | mitotic index (cells in mitosis) ([2]; treated cells 0/1000, control cells 2.25% (23/1024)) | inhibition of binding of vinc alkaloids / colchicin to tubulin (tubulin) |
| --- | --- | --- | --- | --- | --- |
| OC1CC(CCOCc2ccccc2)OC2(C1)CC(O)CC(CCOCc1ccccc1)O2 (stereo not shown) [NP-25, 1,13-dibenzyloxy-5,9-dihydroxy-spiroketal] | induce apoptosis in human breast cancer cells | – | – | – | – |
| OC[C@H]1CCCC2(CCC[C@H](CO)O2)O1 [SPIKET-P1, [(2R,8R)-8-(hydroxymethyl)-1,7-dioxaspiro[5,5]undec-2-yl]methan-1-ol] | induce apoptosis in human breast cancer cells | destruction of the microtubule organization, membrane blebbing, and nuclear fragmentation consistent with apoptosis | fewer, less organized microtubules | 0.0% | – |
| c1ccc(COC[C@H]2CCCC3(CCC[C@H](COCc4ccccc4)O3)O2)cc1 [SPIKET-P1-P, Benzyl-protected SPIKET-P1] | induce apoptosis in human breast cancer cells | – | – | – | – |
| Spongistatin | – | – | – | – | inhibit the binding of vinc alkaloids (but not colchicin) to tubulin |
